Experimental data from patent publication US8148391B2 (Cephalon, Inc., priority 2006, dated 2012).
Where two headings read alike, the source gives them in different places.

Columns and labels:
[1] = molecular target: T1, baculovirus-expressed ALK (Homo sapiens, UniProt Q9UM73); test: ALK Kinase Assay (ELISA-type, time-resolved fluorescence); format: biochemical
T1 construct: host or cells: baculovirus expression system
In short: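 Substrate coating: phospholipase C-γ, 10 μg/mL in TBS. Kinase step: 30 ng/ml ALK, 15 min, 37° C. Detection and analysis: Eu-N1 PT66 antibody, with IC50 fitted as a sigmoidal variable-slope dose-response curve.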

[2] = molecular target: T2, c-Met (cytoplasmic domain) (Homo sapiens, UniProt P08581); test: c-Met Kinase Assay (same methods as for ALK, with modifications); format: biochemical
T2 construct: 10 ng/mL c-Met (cytoplasmic domain, Invitrogen Corporation #PV3143); purchased Invitrogen Corporation PV3143
In short: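 Wells were coated with 10 μg/mL phospholipase C-γ substrate in TBS, and reactions were started with 10 ng/mL c-Met cytoplasmic domain and run at 37° C for 15 minutes. Phosphorylated product was detected with Eu-N1-labeled PT66 antibody. IC50 values came from sigmoidal variable-slope fits of percent inhibition versus log compound concentration.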

[3] = ALK kinase inhibition, 1 μM ATP (Km level), read-out: ALK Activity
[4] = c-Met kinase inhibition, 1 μM ATP (Km level), read-out: cMet Activity
[5] = 1 μM ATP (Km level), 30 ng/ml ALK, 37° C., 15 minutes, read-out: ALK Activity (ALK kinase inhibition, IC50 class)
[6] = 1 μM ATP (Km level), 10 ng/mL c-Met, read-out: cMet Activity (c-Met kinase inhibition, IC50 class)
[7] = ALK kinase inhibition, 1 μM ATP, read-out: ALK Activity
[8] = c-Met kinase inhibition, 1 μM ATP, read-out: cMet Activity
[9] = 1 μM ATP (Km level), read-out: ALK Activity (ALK Kinase Inhibition, IC50)
[10] = 1 μM ATP (Km level), read-out: cMet Activity (c-Met Kinase Inhibition, IC50)

T1 sequence (Q9UM73 19-1620): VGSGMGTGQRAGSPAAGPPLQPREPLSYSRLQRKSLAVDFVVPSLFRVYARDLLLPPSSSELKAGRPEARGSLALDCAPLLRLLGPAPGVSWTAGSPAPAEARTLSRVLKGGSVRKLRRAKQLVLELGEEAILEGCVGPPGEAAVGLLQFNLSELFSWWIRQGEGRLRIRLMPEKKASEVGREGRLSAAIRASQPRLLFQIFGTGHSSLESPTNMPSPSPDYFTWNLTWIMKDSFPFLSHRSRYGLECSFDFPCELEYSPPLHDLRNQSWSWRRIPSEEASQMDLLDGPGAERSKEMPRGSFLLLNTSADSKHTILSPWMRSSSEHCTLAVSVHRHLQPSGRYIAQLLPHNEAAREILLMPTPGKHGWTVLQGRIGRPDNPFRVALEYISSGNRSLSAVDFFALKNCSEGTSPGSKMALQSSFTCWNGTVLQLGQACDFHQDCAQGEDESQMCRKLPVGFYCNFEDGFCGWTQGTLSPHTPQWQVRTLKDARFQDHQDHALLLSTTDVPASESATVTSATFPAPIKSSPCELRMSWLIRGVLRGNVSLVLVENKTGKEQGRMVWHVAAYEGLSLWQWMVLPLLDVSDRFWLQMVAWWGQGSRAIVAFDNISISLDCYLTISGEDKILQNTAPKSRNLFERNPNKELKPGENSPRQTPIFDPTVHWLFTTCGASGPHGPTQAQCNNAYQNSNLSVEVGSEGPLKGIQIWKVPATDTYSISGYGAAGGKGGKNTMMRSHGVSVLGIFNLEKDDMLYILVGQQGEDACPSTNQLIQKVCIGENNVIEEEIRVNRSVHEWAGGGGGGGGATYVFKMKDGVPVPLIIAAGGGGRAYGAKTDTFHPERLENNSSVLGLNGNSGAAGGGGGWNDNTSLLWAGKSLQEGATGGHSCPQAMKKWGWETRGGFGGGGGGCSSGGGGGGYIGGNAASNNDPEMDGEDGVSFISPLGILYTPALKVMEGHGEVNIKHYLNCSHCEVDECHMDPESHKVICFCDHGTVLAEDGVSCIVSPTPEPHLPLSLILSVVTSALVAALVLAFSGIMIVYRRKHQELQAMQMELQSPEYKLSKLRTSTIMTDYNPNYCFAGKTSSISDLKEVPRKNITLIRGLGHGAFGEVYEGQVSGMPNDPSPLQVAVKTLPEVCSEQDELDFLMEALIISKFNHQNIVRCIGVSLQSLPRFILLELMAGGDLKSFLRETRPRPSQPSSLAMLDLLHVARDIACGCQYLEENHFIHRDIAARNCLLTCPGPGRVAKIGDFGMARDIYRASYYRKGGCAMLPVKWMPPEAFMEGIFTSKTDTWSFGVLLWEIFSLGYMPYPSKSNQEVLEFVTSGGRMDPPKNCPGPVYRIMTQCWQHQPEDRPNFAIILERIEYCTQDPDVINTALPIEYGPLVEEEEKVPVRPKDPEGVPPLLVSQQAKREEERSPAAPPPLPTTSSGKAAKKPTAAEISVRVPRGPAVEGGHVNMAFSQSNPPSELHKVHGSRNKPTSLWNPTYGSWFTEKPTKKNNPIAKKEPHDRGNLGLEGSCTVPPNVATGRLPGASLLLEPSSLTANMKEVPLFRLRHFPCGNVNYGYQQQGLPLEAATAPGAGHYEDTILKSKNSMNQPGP
T2 sequence (P08581 956-1390 limits assumed): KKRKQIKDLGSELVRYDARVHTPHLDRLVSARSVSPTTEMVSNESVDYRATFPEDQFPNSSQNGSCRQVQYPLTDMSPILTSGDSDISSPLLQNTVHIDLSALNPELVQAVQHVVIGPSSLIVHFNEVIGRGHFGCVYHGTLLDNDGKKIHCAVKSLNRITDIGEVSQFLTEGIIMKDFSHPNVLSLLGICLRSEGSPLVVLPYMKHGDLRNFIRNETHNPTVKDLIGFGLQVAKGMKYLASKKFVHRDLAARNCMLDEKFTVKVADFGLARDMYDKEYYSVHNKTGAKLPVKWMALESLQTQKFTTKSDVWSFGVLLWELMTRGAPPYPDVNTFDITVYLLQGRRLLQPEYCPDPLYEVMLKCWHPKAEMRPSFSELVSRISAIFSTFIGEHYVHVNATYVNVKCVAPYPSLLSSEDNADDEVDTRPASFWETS

For `CCN1CCc2ccc(Nc3ncc(C#N)c(Nc4ccccc4C(=O)NC)n3)cc2CC1` [Example 194, 2-[2-(3-Ethyl-2,3,4,5-tetrahydro-1H-benzo[d]azepin-7-ylamino)-5-cyano-pyrimidin-4-ylamino]-N-methyl-benzamide], the IC50 [1, 3] was < 0.1 µM and the IC50 [2, 4] was 0.1 to 1 µM.

For `CNC(=O)c1ccccc1Nc1nc(Nc2c(OC)ccc3c2CCC(NCC(F)F)CC3)ncc1Cl` (stereo not drawn) [Example 1078, 2-{5-Chloro-2-[7-(2,2-difluoro-ethylamino)-2-methoxy-6,7,8,9-tetrahydro-5H-benzocyclohepten-1-ylamino]-pyrimidin-4-ylamino}-N-methyl-benzamide], the IC50 [1, 5] was 0.1 to 1 µM and the IC50 [2, 6] was > 10 µM.

In the case of `CCN([C@@H]1CCCC[C@H]1Nc1nc(Nc2cc3c(cc2OC)CCN(CCOC)CC3)ncc1Cl)S(C)(=O)=O` [Example 1677, N-((1R,2R)-2-{5-Chloro-2-[8-methoxy-3-(2-methoxy-ethyl)-2,3,4,5-tetrahydro-1H-benzo[d]azepin-7-ylamino]-pyrimidin-4-ylamino}-cyclohexyl)-N-ethyl-methanesulfonamide], the IC50 [1, 7] is reported as < 0.1 µM and the IC50 [2, 8] is reported as > 10 µM.

Work on `CC1(C)CCC(=O)Nc2ccc(Nc3ncc(Cl)c(Nc4ccccc4-c4nc(C(F)(F)F)c[nH]4)n3)cc21` [Example 1010, 7-{5-Chloro-4-[2-(4-trifluoromethyl-1H-imidazol-2-yl)-phenylamino]-pyrimidin-2-ylamino}-5,5-dimethyl-1,3,4,5-tetrahydro-benzo[b]azepin-2-one] yielded an IC50 [1, 9] of 0.1 to 1 µM and an IC50 [2, 10] of 1 to 10 µM.

`CN1CCN(C)c2c(Nc3ncc(Cl)c(N[C@@H]4CCCC[C@H]4NS(C)(=O)=O)n3)cccc2C1=O` [Example 542, N-{(1R,2R)-2-[5-Chloro-2-(1,4-dimethyl-5-oxo-2,3,4,5-tetrahydro-1H-benzo[e][1,4]diazepin-9-ylamino)-pyrimidin-4-ylamino]-cyclohexyl} methanesulfonamide] was tested, and the IC50 [1, 9] was < 0.1 µM and the IC50 [2, 10] was > 10 µM.

For `CNC(=O)c1ccccc1Nc1nc(Nc2ccc3c(c2)C2CCC(C3)N2S(C)(=O)=O)ncc1Cl` (racemic) [Example 102, (+/−)-2-[5-Chloro-2-(12-methanesulfonyl-12-aza-tricyclo[7.2.1.0*2,7*]dodeca-2(7),3,5-trien-4-ylamino)-pyrimidin-4-ylamino]-N-methyl-benzamide], the IC50 [1, 3] was < 0.1 µM and the IC50 [2, 4] was < 0.1 µM.

In the case of “2-{5-Chloro-2-[1-methoxy-7-(4-methyl-piperazin-1-yl)-6,7,8,9-tetrahydro-5H-benzocyclohepten-2-ylamino]-pyrimidin-4-ylamino}-N,N-dimethyl-benzenesulfonamide [Example 912]”, the IC50 [1, 9] is reported as < 0.1 µM and the IC50 [2, 10] is reported as > 10 µM.

With `CCN1C(=O)[C@H](NC(=O)CN(C)C)CCc2c1ccc(Nc1ncc(Cl)c(N[C@H]3[C@@H](C(N)=O)[C@@H]4C=C[C@H]3C4)n1)c2OC` (single isomer, unassigned) [Example 1354] the IC50 [1, 5] was < 0.1 µM and the IC50 [2, 6] was > 10 µM.

With `CNS(=O)(=O)c1ccccc1Nc1nc(Nc2ccc3c(c2)C2CCC3CNC2)ncc1Cl` (stereo not drawn) [Example 285, 2-[2-(10-Aza-tricyclo[6.3.2.0*2,7*]trideca-2,4,6-trien-4-ylamino)-5-chloro-pyrimidin-4-ylamino]-N-methyl-benzenesulfonamide] the IC50 [1, 3] was < 0.1 µM and the IC50 [2, 4] was < 0.1 µM.

`CNC(=O)c1ccccc1Nc1nc(Nc2ccc3c(c2)-n2ccnc2CCC3)ncc1Cl` [Example 1836, 2-[5-Chloro-2-(5,6-dihydro-4H-3,10b-diaza-benzo[e]azulen-9-ylamino)-pyrimidin-4-ylamino]-N-methyl-benzamide] was tested, and the IC50 [1, 7] was 0.1 to 1 µM and the IC50 [2, 8] was < 0.1 µM.

`COCCN1CCc2ccc(Nc3ncc(Cl)c(Nc4ccccc4-c4nccn4CCOC)n3)cc2CC1` [Example 981, 5-Chloro-N*4*-{2-[1-(2-methoxy-ethyl)-1H-imidazol-2-yl]-phenyl}-N*2*-[3-(2-methoxy-ethyl)-2,3,4,5-tetrahydro-1H-benzo[d]azepin-7-yl]-pyrimidine-2,4-diamine] was tested, and the IC50 [1, 9] was 0.1 to 1 µM and the IC50 [2, 10] was 1 to 10 µM.

With `C#CCNC(=O)c1cccc(F)c1Nc1nc(Nc2ccc3c(c2)N(C(C)C)CCCO3)ncc1Cl` [Example 1733, 2-[5-Chloro-2-(9-isopropyl-6,7,8,9-tetrahydro-5-oxa-9-aza-benzocyclohepten-2-ylamino)-pyrimidin-4-ylamino]-3-fluoro-N-prop-2-ynyl-benzamide] the IC50 [1, 7] was < 0.1 µM and the IC50 [2, 8] was 0.1 to 1 µM.

For “(1S,2S,3R,4R)-3-{5-Chloro-2-[7-(4-methyl-piperazin-1-yl)-6,7,8,9-tetrahydro-5H-benzocyclohepten-2-ylamino]-pyrimidin-4-ylamino}-bicyclo[2.2.1]hept-5-ene-2-carboxylic acid amide [Example 893]”, the IC50 [1, 9] was < 0.1 µM and the IC50 [2, 10] was 0.1 to 1 µM.

With `COc1cc2c(cc1Nc1ncc(Cl)c(Nc3ccc(N4CCN(C)CC4)c(C)c3)n1)CCN(CC(F)F)CC2` [Example 765, 5-Chloro-N*2*-[3-(2,2-difluoro-ethyl)-8-methoxy-2,3,4,5-tetrahydro-1H-benzo[d]azepin-7-yl]-N*4*-[3-methyl-4-(4-methyl-piperazin-1-yl)-phenyl]-pyrimidine-2,4-diamine] the IC50 [1, 9] was < 0.1 µM and the IC50 [2, 10] was > 10 µM.

`CCCCNC(=O)c1ccccc1Nc1nc(Nc2cc3c(cc2OC)CCN(CCOC)CC3)ncc1Cl` [Example 1031, N-Butyl-2-{5-chloro-2-[8-methoxy-3-(2-methoxy-ethyl)-2,3,4,5-tetrahydro-1H-benzo[d]azepin-7-ylamino]-pyrimidin-4-ylamino}-benzamide] was tested, and the IC50 [1, 5] was < 0.1 µM and the IC50 [2, 6] was > 10 µM.

`COCCN1CCc2ccc(Nc3ncc(Cl)c(Nc4ccccc4S(=O)(=O)N4CCCC4)n3)cc2CC1` [Example 1730, 5-Chloro-N*2*-[3-(2-methoxy-ethyl)-2,3,4,5-tetrahydro-1H-benzo[d]azepin-7-yl]-N*4*-[2-(pyrrolidine-1-sulfonyl)-phenyl]-pyrimidine-2,4-diamine] was tested, and the IC50 [1, 7] was < 0.1 µM and the IC50 [2, 8] was < 0.1 µM.

With `CCN1C(=O)[C@@H](N2CCOCC2)CCc2c1ccc(Nc1ncc(Cl)c(N[C@H]3[C@@H](C(N)=O)[C@@H]4C=C[C@H]3C4)n1)c2OC` (single isomer, unassigned) [Example 1345] the IC50 [1, 5] was < 0.1 µM and the IC50 [2, 6] was > 10 µM.

In the case of `COc1cc2c(cc1Nc1ncc(Cl)c(N[C@@H]3CCCC[C@H]3NS(C)(=O)=O)n1)CCN(C(CF)CF)CC2` [Example 1392, ((1R,2R)-2-{5-Chloro-2-[3-(2-fluoro-1-fluoromethyl-ethyl)-8-methoxy-2,3,4,5-tetrahydro-1H-benzo[d]azepin-7-ylamino]-pyrimidin-4-ylamino}-cyclohexyl)-methanesulfonamide], the IC50 [1, 5] is reported as < 0.1 µM and the IC50 [2, 6] is reported as > 10 µM.

For `CCN1CC(=O)N(CC)c2cc(Nc3ncc(Cl)c(N[C@H]4[C@@H](C(N)=O)[C@@H]5C=C[C@H]4C5)n3)c(OC)cc2C1` [Example 739, (1S,2,3R,4R)-3-[5-Chloro-2-(1,4-diethyl-7-methoxy-2-oxo-2,3,4,5-tetrahydro-1H-benzo[e][1,4]diazepin-8-ylamino)-pyrimidin-4-ylamino]-bicyclo(2.2.1)hept-5-ene-2-carboxylic acid amide], the IC50 [1, 9] was 0.1 to 1 µM and the IC50 [2, 10] was > 10 µM.

For `COCCn1ccnc1-c1ccccc1Nc1nc(Nc2ccc3c(c2)C(C)(C)CCC(=O)N3)ncc1Cl` [Example 980, 7-(5-Chloro-4-{2-[1-(2-methoxy-ethyl)-1H-imidazol-2-yl]-phenylamino}-pyrimidin-2-ylamino)-5,5-dimethyl-1,3,4,5-tetrahydro-benzo[b]azepin-2-one], the IC50 [1, 9] was 0.1 to 1 µM and the IC50 [2, 10] was > 10 µM.

For `C#CCNC(=O)c1cccc(F)c1Nc1nc(Nc2ccc3c(c2)N(CC)C(=O)CCC3(C)C)ncc1Cl` [Example 1405, 2-[5-Chloro-2-(1-ethyl-5,5-dimethyl-2-oxo-2,3,4,5-tetrahydro-1H-benzo[b]azepin-8-ylamino)-pyrimidin-4-ylamino]-3-fluoro-N-prop-2-ynyl-benzamide], the IC50 [1, 5] was 0.1 to 1 µM and the IC50 [2, 6] was < 0.1 µM.

For `CCC(=O)OCCN1CCc2cc(Nc3ncc(Cl)c(Nc4ccccc4S(=O)(=O)N(C)C)n3)c(OC)cc2CC1` [Example 1546, Propionic acid 2-{7-[5-chloro-4-(2-dimethylsulfamoyl-phenylamino)-pyrimidin-2-ylamino]-8-methoxy-1,2,4,5-tetrahydro-3-benzazepin-3-yl}-ethyl ester], the IC50 [1, 7] was < 0.1 µM and the IC50 [2, 8] was 1 to 10 µM.

For `CC1(C)CCC(=O)Nc2ccc(Nc3ncc(Cl)c(Nc4ccc5[nH]c(C(F)(F)F)nc5c4)n3)cc21` [Example 1014, 7-[5-Chloro-4-(2-trifluoromethyl-1H-benzoimidazol-5-ylamino)-pyrimidin-2-ylamino]-5,5-dimethyl-1,3,4,5-tetrahydro-benzo[b]azepin-2-one], the IC50 [1, 5] was < 0.1 µM and the IC50 [2, 6] was > 10 µM.

`C#CCNC(=O)c1ccccc1Nc1nc(Nc2ccc3c(c2)CCN(CCOC)CC3)ncc1Cl` [Example 1387, 2-{5-Chloro-2-[3-(2-methoxy-ethyl)-2,3,4,5-tetrahydro-1H-benzo[d]azepin-7-ylamino]-pyrimidin-4-ylamino}-N-prop-2-ynyl-benzamide] was tested, and the IC50 [1, 5] was < 0.1 µM and the IC50 [2, 6] was < 0.1 µM.
